ChEMBL document CHEMBL5352490, “SAR investigation and optimization of benzimidazole-based derivatives as antimicrobial agents against Gram-negative bacteria” (Eur J Med Chem, 2023)
Values after ≈ are worked out from the molar mass of the structure shown.

Columns and labels:
Escherichia coli [1] = assay: Antibacterial activity against Escherichia coli tolC mutant incubated for 24 hrs by broth microdilution method; type: functional
[2] = Cytotoxicity against African green monkey Vero cells assessed as reduction in cell viability incubated for 24 hrs by MTS assay; type: toxicity, cell-based; conditions: chlorocebus sabaeus
Escherichia coli [3] = assay: Bacteriostatic effect in Escherichia coli JW55031 assessed as log reduction in bacterial burden at 10 times MIC measured after 24 hrs by time kill assay; type: functional
Escherichia coli [4] = assay: Bacteriostatic effect in Escherichia coli JW55031 assessed as log reduction in bacterial count at 5 times MIC measured at 24 hrs by time kill assay; type: functional
Escherichia coli [5] = assay: Bacteriostatic effect in Escherichia coli JW55031 assessed as log reduction in bacterial count at 10 times MIC measured at 24 hrs by time kill assay; type: functional
Escherichia coli [6] = assay: Antibacterial activity against wild type Escherichia coli BW25113 incubated for 24 hrs in absence of colistin by broth microdilution method; type: functional
Escherichia coli [7] = assay: Synergistic antibacterial activity against wild type Escherichia coli BW25113 incubated for 24 hrs in presence of colistin by broth microdilution method; type: functional
Klebsiella pneumoniae [8] = assay: Antibacterial activity against Klebsiella pneumoniae ATCC 1706 incubated for 24 hrs in absence of colistin by broth microdilution method; type: functional
Klebsiella pneumoniae [9] = assay: Synergistic antibacterial activity against Klebsiella pneumoniae ATCC 1706 incubated for 24 hrs in presence of colistin by broth microdilution method; type: functional
Acinetobacter baumannii [10] = assay: Antibacterial activity against Acinetobacter baumannii ATCC 19606 incubated for 24 hrs in absence of colistin by broth microdilution method; type: functional
Acinetobacter baumannii [11] = assay: Synergistic antibacterial activity against Acinetobacter baumannii ATCC 19606 incubated for 24 hrs in presence of colistin by broth microdilution method; type: functional
Pseudomonas aeruginosa [12] = assay: Antibacterial activity against Pseudomonas aeruginosa ATCC 9027 incubated for 24 hrs in absence of colistin by broth microdilution method; type: functional
Pseudomonas aeruginosa [13] = assay: Synergistic antibacterial activity against Pseudomonas aeruginosa ATCC 9027 incubated for 24 hrs in presence of colistin by broth microdilution method; type: functional

Compound | MIC (Escherichia coli [1]) | also measured
Cc1ccc(Cn2c(-c3cccc(NS(=O)(=O)c4ccc5ccccc5c4)c3)nc3ccccc32)cc1 | > 64 µg/mL | 
Cc1ccc(Cn2c(-c3cccc(NS(=O)(=O)c4cccc(Cl)c4)c3)nc3ccccc32)cc1 | 0.125 µg/mL (≈ 0.256 µM) | CC50 at 24 h [2]: > 128 µg/mL; log(activity) (Escherichia coli [3]): 0.4; log(activity) (Escherichia coli [4]): 2.54; log(activity) (Escherichia coli [5]): 2.9; MIC (Escherichia coli [6]): > 64 µg/mL; MIC (Escherichia coli [7]): 16 µg/mL; MIC (Klebsiella pneumoniae [8]): > 64 µg/mL; MIC (Klebsiella pneumoniae [9]): 8 µg/mL; MIC (Acinetobacter baumannii [10]): > 64 µg/mL; MIC (Acinetobacter baumannii [11]): 4 µg/mL; MIC (Pseudomonas aeruginosa [12]): > 64 µg/mL; MIC (Pseudomonas aeruginosa [13]): 16 µg/mL
Cc1ccc(Cn2c(-c3cccc(NS(C)(=O)=O)c3)nc3ccc(Br)cc32)cc1 | > 64 µg/mL | 
CC(=O)NC[C@H]1CN(c2ccc(N3CCOCC3)c(F)c2)C(=O)O1 [LINEZOLID] | 8 µg/mL (≈ 23.7 µM) | 
Cc1ccc(Cn2c(-c3cccc(NS(C)(=O)=O)c3)nc3cc(C(=N)NO)ccc32)cc1 | > 64 µg/mL | 
CC[C@H]1OC(=O)[C@H](C)[C@@H](O[C@H]2C[C@@](C)(OC)[C@@H](O)[C@H](C)O2)[C@H](C)[C@@H](O[C@@H]2O[C@H](C)C[C@H](N(C)C)[C@H]2O)[C@](C)(O)C[C@@H](C)C(=O)[C@H](C)[C@@H](O)[C@]1(C)O [ERYTHROMYCIN] |  | MIC (Escherichia coli [6]): 32 µg/mL (≈ 43.6 µM); MIC (Escherichia coli [7]): 2 µg/mL; MIC (Klebsiella pneumoniae [8]): 64 µg/mL (≈ 87.2 µM); MIC (Klebsiella pneumoniae [9]): 4 µg/mL; MIC (Acinetobacter baumannii [10]): 8 µg/mL (≈ 10.9 µM); MIC (Acinetobacter baumannii [11]): 0.25 µg/mL; MIC (Pseudomonas aeruginosa [12]): > 64 µg/mL; MIC (Pseudomonas aeruginosa [13]): 8 µg/mL
Cc1ccc(Cn2c(-c3cccc(NS(=O)(=O)c4ccc(N)cc4)c3)nc3ccccc32)cc1 | > 64 µg/mL | 
CS(=O)(=O)Nc1cccc(-c2nc3ccccc3n2Cc2ccc(-c3nnn[nH]3)cc2)c1 | > 64 µg/mL | 
Cc1ccc(Cn2c(-c3cccc(NS(C)(=O)=O)c3)nc3cc(C(=O)O)ccc32)cc1 | > 64 µg/mL | 
CCCCCCCCCC(=O)N[C@@H](Cc1c[nH]c2ccccc12)C(=O)N[C@H](CC(N)=O)C(=O)N[C@@H](CC(=O)O)C(=O)N[C@@H]1C(=O)NCC(=O)N[C@@H](CCCN)C(=O)N[C@@H](CC(=O)O)C(=O)N[C@H](C)C(=O)N[C@@H](CC(=O)O)C(=O)NCC(=O)N[C@H](CO)C(=O)N[C@@H]([C@H](C)CC(=O)O)C(=O)N[C@@H](CC(=O)c2ccccc2N)C(=O)O[C@@H]1C |  | MIC (Escherichia coli [6]): > 128 µg/mL; MIC (Escherichia coli [7]): > 128 µg/mL; MIC (Klebsiella pneumoniae [8]): > 128 µg/mL; MIC (Klebsiella pneumoniae [9]): > 128 µg/mL; MIC (Acinetobacter baumannii [10]): > 128 µg/mL; MIC (Acinetobacter baumannii [11]): > 128 µg/mL; MIC (Pseudomonas aeruginosa [12]): > 128 µg/mL; MIC (Pseudomonas aeruginosa [13]): > 128 µg/mL
Cc1ccc(Cn2c(-c3cccc(NS(=O)(=O)c4ccc(F)c(F)c4)c3)nc3ccccc32)cc1 | 1 µg/mL (≈ 2.04 µM) | 
Cc1ccc(Cn2c(-c3cccc(NS(=O)(=O)c4ccc([N+](=O)[O-])cc4)c3)nc3ccccc32)cc1 | > 64 µg/mL | 
Cc1ccc(Cn2c(-c3cccc(-c4ncon4)c3)nc3ccccc32)cc1 | > 64 µg/mL | 
CS(=O)(=O)Nc1cccc(-c2nc3ccccc3n2Cc2ccc(-c3ncon3)cc2)c1 | > 64 µg/mL | 
Cc1ccc(Cn2c(-c3cccc(NS(=O)(=O)c4cccc(Br)c4)c3)nc3ccccc32)cc1 | 0.5 µg/mL (≈ 0.939 µM) | 
Cc1ccc(Cn2c(-c3cccc(NS(C)(=O)=O)c3)nc3ccc(N)cc32)cc1 | > 64 µg/mL | 
CCOC(=O)c1ccc2nc(-c3cccc(NS(C)(=O)=O)c3)n(Cc3ccc(C)cc3)c2c1 | > 64 µg/mL | 
Cc1ccc(Cn2c(-c3cccc(NS(=O)(=O)c4ccc(Br)cc4)c3)nc3ccccc32)cc1 | > 64 µg/mL | 
CCOC(=O)c1cccc2nc(-c3cccc(NS(C)(=O)=O)c3)n(Cc3ccc(C)cc3)c12 | > 64 µg/mL | 
CC(=O)Nc1ccc(S(=O)(=O)Nc2cccc(-c3nc4ccccc4n3Cc3ccc(C)cc3)c2)cc1 | > 64 µg/mL | 
COc1ccc(S(=O)(=O)Nc2cccc(-c3nc4ccccc4n3Cc3ccc(C)cc3)c2)cc1OC | 4 µg/mL (≈ 7.79 µM) | 
Cc1ccc(Cn2c(-c3cccc(NS(C)(=O)=O)c3)nc3cc(C#N)ccc32)cc1 | > 64 µg/mL | 
Cc1ccc(Cn2c(-c3cccc(NS(=O)(=O)c4ccc(C(C)(C)C)cc4)c3)nc3ccccc32)cc1 | > 64 µg/mL | 
Cc1ccc(Cn2c(-c3cccc(-c4nnn[nH]4)c3)nc3ccccc32)cc1 | 8 µg/mL (≈ 21.8 µM) | 
CS(=O)(=O)Nc1cccc(-c2nc3ccccc3n2Cc2ccc(C(=N)NO)cc2)c1 | > 64 µg/mL | 
Cc1ccc(Cn2c(-c3cccc(NS(=O)(=O)c4ccc(F)c(Cl)c4)c3)nc3ccccc32)cc1 | 2 µg/mL (≈ 3.95 µM) | 
Cc1ccc(Cn2c(-c3cccc(NS(C)(=O)=O)c3)nc3ccc(C)cc32)cc1 | > 64 µg/mL | 

Compound | MIC (Escherichia coli [1]) | also measured
Cc1ccc(Cn2c(-c3cccc(NS(=O)(=O)c4ccc(-c5ccccc5)cc4)c3)nc3ccccc32)cc1 | > 64 µg/mL | 
Cc1ccc(Cn2c(-c3cccc(C(=N)N)c3)nc3ccccc32)cc1 | 32 µg/mL (≈ 94 µM) | 
Cc1ccc(Cn2c(-c3cccc(NS(C)(=O)=O)c3)nc3cccc(C(=O)O)c32)cc1 | > 64 µg/mL | 
COc1ccc(S(=O)(=O)Nc2cccc(-c3nc4ccccc4n3Cc3ccc(C)cc3)c2)cc1 | 4 µg/mL (≈ 8.27 µM) | 
Cc1ccc(Cn2c(-c3cccc(NS(=O)(=O)c4ccc(Cl)cc4)c3)nc3ccccc32)cc1 | 2 µg/mL (≈ 4.1 µM) | 
Cc1ccc(Cn2c(-c3cccc(NS(C)(=O)=O)c3)nc3cc(C)ccc32)cc1 | > 64 µg/mL | 
Cc1ccc(Cn2c(-c3cccc(NS(C)(=O)=O)c3)nc3cc(N)ccc32)cc1 | > 64 µg/mL | 
GENTAMICIN | 0.25 µg/mL | 
Cc1ccc(Cn2c(-c3cccc(NS(C)(=O)=O)c3)nc3ccc(C#N)cc32)cc1 | > 64 µg/mL | 
CCOC(=O)Nc1ccc2c(c1)nc(-c1cccc(NS(C)(=O)=O)c1)n2Cc1ccc(C)cc1 | > 64 µg/mL | 
Cc1ccc(Cn2c(-c3cccc(NS(=O)(=O)c4cccc([N+](=O)[O-])c4)c3)nc3ccccc32)cc1 | 2 µg/mL (≈ 4.01 µM) | 
Cc1ccc(Cn2c(-c3cccc(NS(=O)(=O)C4CC4)c3)nc3ccccc32)cc1 | 1 µg/mL (≈ 2.4 µM) | 
Cc1ccc(Cn2c(-c3cccc(NS(C)(=O)=O)c3)nc3ccccc32)cc1 | 2 µg/mL (≈ 5.11 µM) | 
Cc1ccc(Cn2c(-c3cccc(NS(C)(=O)=O)c3)nc3cc(C(F)(F)F)ccc32)cc1 | > 64 µg/mL | 
Cc1ccc(Cn2c(-c3cccc(NS(=O)(=O)c4ccc(C(F)(F)F)cc4)c3)nc3ccccc32)cc1 | > 64 µg/mL | 
Cc1ccc(Cn2c(-c3cccc(NS(C)(=O)=O)c3)nc3ccc(C(=N)NO)cc32)cc1 | > 64 µg/mL | 
CCOC(=O)c1ccc2c(c1)nc(-c1cccc(NS(C)(=O)=O)c1)n2Cc1ccc(C)cc1 | > 64 µg/mL | 
Cc1ccc(Cn2c(-c3cccc(NS(C)(=O)=O)c3)nc3ccc(C(=O)O)cc32)cc1 | > 64 µg/mL | 
CCOC(=O)Nc1ccc2nc(-c3cccc(NS(C)(=O)=O)c3)n(Cc3ccc(C)cc3)c2c1 | > 64 µg/mL | 
Cc1ccc(Cn2c(-c3cccc(NS(=O)(=O)c4ccc(OC(F)(F)F)cc4)c3)nc3ccccc32)cc1 | > 64 µg/mL | 
Cc1ccc(Cn2c(-c3cccc(NS(=O)(=O)c4ccccc4[N+](=O)[O-])c3)nc3ccccc32)cc1 | 1 µg/mL (≈ 2.01 µM) | 
Cc1ccc(Cn2c(-c3cccc(NS(C)(=O)=O)c3)nc3cc(Br)ccc32)cc1 | > 64 µg/mL | 
Cc1ccc(Cn2c(-c3cccc(NS(=O)(=O)c4ccccc4)c3)nc3ccccc32)cc1 | 1 µg/mL (≈ 2.2 µM) | 
Cc1ccc(Cn2c(-c3cccc(NS(=O)(=O)c4ccc(C)cc4)c3)nc3ccccc32)cc1 | 2 µg/mL (≈ 4.28 µM) | 
Cc1ccc(Cn2c(-c3cccc(NS(=O)(=O)c4ccc(C(C)C)cc4)c3)nc3ccccc32)cc1 | > 64 µg/mL | 
Cc1ccc(Cn2c(-c3cccc(NS(=O)(=O)c4cccc(N)c4)c3)nc3ccccc32)cc1 | 2 µg/mL (≈ 4.27 µM) | 
Cc1ccc(Cn2c(-c3cccc(C(=N)NO)c3)nc3ccccc32)cc1 | > 64 µg/mL | 
